# Where “and” joins values, the source holds several entries; their conditions need not be identical. Equal values may be shown once.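 Grown in 96-well plates, cells were treated for 48 hours with each compound at five concentrations. Insufficient inhibition: endpoint recorded as highest concentration tested. GI50: concentration for 50% inhibition of growth. TGI denotes the concentration required for complete inhibition of growth.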
# Tests used:
# Assay in all cases: inhibition of tumour cell growth, NCI panel, 48 h
# SF-268 CNS = tested on: SF-268 CNS
# HT29 colon = tested on: HT29 colon
# MDA-MB-435 = tested on: MDA-MB-435
# A498 renal = tested on: A498 renal
# NCI-H226 lung = tested on: NCI-H226 lung
# SNB-19 CNS = tested on: SNB-19 CNS
# MALME-3M melanoma = tested on: MALME-3M melanoma
# PC-3 prostate = tested on: PC-3 prostate
# SW-620 colon = tested on: SW-620 colon
# SK-OV-3 ovarian = tested on: SK-OV-3 ovarian
# SNB-75 CNS = tested on: SNB-75 CNS
# MDA-N = tested on: MDA-N
SMILES,TGI (SF-268 CNS) [µM],TGI (HT29 colon) [µM],TGI (MDA-MB-435) [µM],TGI (A498 renal),TGI (NCI-H226 lung) [µM],TGI (SNB-19 CNS) [µM],TGI (MALME-3M melanoma),TGI (PC-3 prostate) [µM],TGI (SW-620 colon),TGI (SK-OV-3 ovarian) [µM],TGI (SNB-75 CNS) [µM],TGI (MDA-N) [µM],GI50 (HT29 colon) [µM],GI50 (MALME-3M melanoma) [µM],GI50 (SW-620 colon) [µM],GI50 (SNB-75 CNS) [µM]
CN(C)c1ccc(/C=C/C(=O)c2ccc(O)cc2)cc1,> 100,29.9,3.22,> 65.7 µM,> 100,> 100,51 µM,63.2,> 100 µM,61.9,> 42.7,–,–,–,–,–
COC(=O)c1ccc2c(c1)CC1(C2)Cc2cc3c(cc2C1)CCC3,> 100,> 100,> 100,> 100 µM,–,> 100,> 100 µM,> 100,> 100 µM,> 100,> 100,> 100,–,–,–,–
COc1ccc(N2C(=O)c3c(c4[nH]c5ccccc5c4c4ccc(C(C)(C)C)cc34)C2=O)cc1,74.4,–,–,77.1 µM,> 100,> 100,> 100 µM,–,> 100 µM,> 100,35.4,–,–,–,–,–
O=Cc1c[nH]c2c(=O)[nH]cnc12,> 100,> 100,–,–,–,> 100,> 100 µM,–,> 100 µM,> 100,> 100,–,–,–,–,–
CC1=CC2C(C=C1)S(=O)(=O)N1CC21c1ccccc1 (stereo not given),> 100,> 100,–,> 100 µM,–,> 100,> 100 µM,–,> 100 µM,> 100,> 100,–,–,–,–,–
COc1cc2ccc3c4ccccc4cnc3c2cc1OC,> 100,> 100,–,–,> 100,> 100,> 100 µM,–,> 100 µM,> 100,> 100,–,–,–,–,–
O=C1[C@@H]2C(c3ccc(Br)cc3)=NO[C@@H]2C(=O)N1c1ccc(Cc2ccc(N3C(=O)[C@H]4C(c5ccc(Br)cc5)=NO[C@H]4C3=O)cc2)cc1,> 3.48,> 40,–,> 3.48 µM and 16.2 µM,–,> 3.48,> 40 µM,–,> 40 µM,> 3.48,> 40,–,> 40,> 40,> 40,> 40
N#CC(NNC(=O)Cc1ccccc1)c1cccc(O)c1 (stereo not given),> 100,> 100,–,–,> 100,–,> 100 µM,–,> 100 µM,> 100,> 100,–,–,–,–,–
COc1ccc2[nH]c3c(c2c1)[C@H](c1ccccc1)C[C@@H]1C(=O)N(c2ccccc2)C(=O)[C@H]31,> 100,–,–,49.6 µM,57.6,> 100,> 100 µM,–,49.7 µM,50,40.1,–,–,–,–,–
CC1(C)OC(=O)C(C)(C)C(=O)O1,> 100,> 100,–,–,> 100,> 100,> 100 µM,> 100,> 100 µM,> 100,> 100,> 100,–,–,–,–
COc1cc2c(c(OC)c1OC)-c1ccc(SC)c(=O)cc1[C@@H](NCc1ccc(F)cc1)CC2,–,< 0.0075,–,0.0265 µM,–,75,34.2 µM and 28.4 µM,–,18.8 µM and > 100 µM,–,–,–,–,–,–,–
COc1ccc(/C=c2\c(=O)[nH]c3nc4ccccc4c(=O)n23)cc1,> 100,> 100,> 100,–,> 100,> 100,> 100 µM,> 100,> 100 µM,> 100,> 100,–,–,–,–,–

# Source: PubChem BioAssay (NCI)
